Patent EP4603105A1, “PHARMACEUTICAL COMPOSITION CONTAINING CYCLIC COMPOUND HAVING SELECTIVE KRAS INHIBITORY EFFECT AGAINST HRAS AND NRAS” (CHUGAI SEIYAKU KABUSHIKI KAISHA, priority 2022, dated 2024)
Where a SMILES comes first, the peptide text is derived from it. Bridges are numbered along the chain shown (N, C = ends). [ ]: non-standard residue; d: D form. The star is where a group is joined. hPhe(3,5-F2-4-CF3) = N[C@@H](CCc1cc(F)c(C(F)(F)F)c(F)c1)C(=O)O; hPhe(3-Cl-4-CF3) = N[C@@H](CCc1ccc(C(F)(F)F)c(Cl)c1)C(=O)O; NPrPhe(4-CF3) = CCCN[C@@H](Cc1ccc(C(F)(F)F)cc1)C(=O)O; NMeGly(cPent) = CN[C@H](C(=O)O)C1CCCC1; Pro(4,4-F2) = O=C(O)[C@@H]1CC(F)(F)CN1; NMeD = CN[C@@H](CC(=O)O)C(=O)O; NMeL = CN[C@@H](CC(C)C)C(=O)O; Iva = CC[C@](C)(N)C(=O)O; Morpholide = C1CN(*)CCO1; NMeA = CN[C@@H](C)C(=O)O; Aze = O=C(O)[C@@H]1CCN1; Ac4c = NC1(C(=O)O)CCC1; Aib = CC(C)(N)C(=O)O; Sar = CNCC(=O)O

Legend:
[1] = tested on: human lung cancer strain NCI-H441; format: cell-based
Outline: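 Step one: dispense the test compound in serial DMSO dilutions. Step three: add the reagent and measure […].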

HRAS wild-type protein = HRAS wild-type protein (Homo sapiens, UniProt P01112); experiment: Binding to HRAS by surface plasmon resonance (SPR), KD and KD ratio to KRAS
HRAS wild-type protein, sequence (P01112 whole entry): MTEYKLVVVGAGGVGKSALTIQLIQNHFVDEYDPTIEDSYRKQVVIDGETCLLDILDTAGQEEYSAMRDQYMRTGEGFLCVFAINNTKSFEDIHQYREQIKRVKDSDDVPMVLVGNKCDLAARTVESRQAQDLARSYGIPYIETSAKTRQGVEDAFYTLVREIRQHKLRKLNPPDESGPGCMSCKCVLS
Outline: (§1)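 Biotinylated GDP-bound RAS was captured at about 100–300 RU. Running buffer: HBS pH 7.4, 10 mM MgCl2, 10 µM GDP, 1 mM DTT, 0.01% Tween 20, 4% DMSO.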

[2] = biological target: GDP-bound NRAS wild-type protein (Homo sapiens, UniProt P01111); experiment: Binding to NRAS by surface plasmon resonance (SPR), KD and KD ratio to KRAS
GDP-bound NRAS wild-type protein, sequence (P01111 whole entry): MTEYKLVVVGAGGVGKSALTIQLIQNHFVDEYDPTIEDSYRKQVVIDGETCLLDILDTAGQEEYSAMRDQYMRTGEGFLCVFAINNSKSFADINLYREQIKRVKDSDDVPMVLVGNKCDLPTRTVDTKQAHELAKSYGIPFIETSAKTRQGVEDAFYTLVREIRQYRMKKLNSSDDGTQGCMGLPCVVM
Outline: as §1

[3] = ratio of KD for HRAS wild-type protein to KD for KRAS
[4] = ratio of KD for GDP-bound NRAS wild-type protein to KD for KRAS
[5] = ratio of the KD value with respect to HRAS wild-type protein to the KD value with respect to KRAS
[6] = ratio of the KD value with respect to GDP-bound NRAS wild-type protein to the KD value with respect to KRAS
[7] = ratio of KD value for HRAS wild-type protein to KD value for KRAS (SPR)
[8] = ratio of KD value for GDP-bound NRAS wild-type protein to KD value for KRAS (SPR)

SMILES	IC50 [1] [nM]	HRAS /KRAS (HRAS wild-type protein; [3])	NRAS /KRAS [2, 4]	HRAS /KRAS (HRAS wild-type protein; [5])	NRAS /KRAS [2, 6]	HRAS /KRAS (HRAS wild-type protein; [7])	NRAS /KRAS [2, 8]
CCCN1C(=O)CN(C)C(=O)CN(C)C(=O)[C@H]([C@@H](C)CC)NC(=O)[C@H](CC(C)C)N(C)C(=O)C[C@@H](C(=O)N2CCOCC2)N(C)C(=O)[C@H](C2CCCC2)N(C)C(=O)C(C)(C)NC(=O)[C@@H]2CCCN2C(=O)[C@H](CCc2ccc(C(F)(F)F)c(Cl)c2)NC(=O)CN(C)C(=O)[C@@H]1Cc1ccc(C(F)(F)F)cc1 [PP0230] ([NMeL]I[Sar][Sar][NPrPhe(4-CF3)][Sar][hPhe(3-Cl-4-CF3)]P[Aib][NMeGly(cPent)][NMeD]-Morpholide; lactam N-11)	15.5	C (A compound having a KD ratio of 0.1 or more and less than 3 is denoted as C)	B (a compound having 3 or more and less than 10 is denoted as B)	–	–	–	–
CC[C@H](C)[C@@H]1NC(=O)[C@H](CC(C)C)N(C)C(=O)C[C@@H](C(=O)N2CCOCC2)N(C)C(=O)[C@H](C2CCCC2)N(C)C(=O)C2(CCCC2)NC(=O)[C@H](C)N(CC)C(=O)[C@H](CCc2cc(F)c(C(F)(F)F)c(F)c2)NC(=O)CN(C)C(=O)[C@H](Cc2ccc(C(F)(F)F)cc2)N2CCCC[C@@H](C2=O)N(C)C(=O)CN(C)C1=O [PP0589]	24.8	–	–	B (a compound having 3 or more and less than 10 is denoted as B)	B (a compound having 3 or more and less than 10 is denoted as B)	–	–
CC[C@H](C)[C@@H]1NC(=O)[C@H](CC(F)(F)F)N(C)C(=O)C[C@@H](C(=O)N2CCOCC2)N(C)C(=O)[C@H](C2CCCC2)N(C)C(=O)C2(CCCC2)NC(=O)[C@@H]2CCCN2C(=O)[C@H](CCc2cc(F)c(C(F)(F)F)c(F)c2)NC(=O)CN(C)C(=O)[C@H](Cc2ccc(C(F)(F)F)cc2)N2CCCCC[C@@H](C2=O)N(C)C(=O)CN(C)C1=O [PP0520]	17.1	–	–	B (a compound having 3 or more and less than 10 is denoted as B)	B (a compound having 3 or more and less than 10 is denoted as B)	–	–
CCO[C@@H]1C[C@H]2C(=O)NC3(CCCC3)C(=O)N(C)[C@@H](C3CCCC3)C(=O)N(C)[C@H](C(=O)N3CCOCC3)CC(=O)N(C)[C@@H](CC(C)C)C(=O)N[C@@H]([C@@H](C)CC)C(=O)N(C)CC(=O)N(C)[C@H]3CC(C)=CCN(C3=O)[C@@H](Cc3ccc(C(F)(F)F)cc3)C(=O)N(C)CC(=O)N[C@@H](CCc3cc(F)c(C(F)(F)F)c(F)c3)C(=O)N2C1 [PP1038]	188	C (A compound having a KD ratio of 0.1 or more and less than 3 is denoted as C)	C (A compound having a KD ratio of 0.1 or more and less than 3 is denoted as C)	–	–	–	–
CCC[C@H]1C(=O)N[C@@H]([C@@H](C)CC)C(=O)N(C)CC(=O)N(C)[C@H]2C/C=C\CCN(C2=O)[C@@H](Cc2ccc(C(F)(F)F)cc2)C(=O)N(C)CC(=O)N[C@@H](CCc2cc(F)c(C(F)(F)F)c(F)c2)C(=O)N2C[C@@H](C)C[C@H]2C(=O)NC2(CC(C)(C)C2)C(=O)N(C)[C@@H](C2CCCC2)C(=O)N(C)[C@H](C(=O)N(C)C)CC(=O)N1C [PP1683]	2.5	–	–	–	–	A (a compound having 10 or more and less than 20 is denoted as A)	A (a compound having 10 or more and less than 20 is denoted as A)
CCO[C@@H]1C[C@H]2C(=O)NC3(CC(C)(C)C3)C(=O)N(C)[C@@H](C3CCCC3)C(=O)N(C)[C@H](C(=O)N(C)C)CC(=O)N(C)[C@@H](CC(F)(F)F)C(=O)N[C@@H]([C@@H](C)CC)C(=O)N(C)CC(=O)N(C)[C@H]3C/C=C\CCN(C3=O)[C@@H](Cc3ccc(C(F)(F)F)cc3)C(=O)N(C)CC(=O)N[C@@H](CCc3ccc(C(F)(F)F)c(Cl)c3)C(=O)N2C1 [PP2833]	3.8	A (a compound having 10 or more and less than 20 is denoted as A)	A (a compound having 10 or more and less than 20 is denoted as A)	–	–	–	–
CCO[C@@H]1C[C@H]2C(=O)NC3(CCC3)C(=O)N(C)[C@@H](C3CCCC3)C(=O)N(C)[C@H](C(=O)N(C)C)CC(=O)N(C)[C@@H](C)C(=O)N[C@@H]([C@@H](C)CC)C(=O)N(C)CC(=O)N(C)[C@H]3CCCCCN(C3=O)[C@@H](Cc3ccc(C(F)(F)F)cc3)C(=O)N(C)CC(=O)N[C@@H](CCc3cc(F)c(C(F)(F)F)c(F)c3)C(=O)N2C1 [PP0476]	4.9	–	–	B (a compound having 3 or more and less than 10 is denoted as B)	B (a compound having 3 or more and less than 10 is denoted as B)	–	–
CCO[C@@H]1C[C@H]2C(=O)NC3(CC(C)(C)C3)C(=O)N(C)[C@@H](C3CCCC3)C(=O)N(C)[C@H](C(=O)N(C)CC)CC(=O)N(C)[C@@H](CC)C(=O)N[C@@H]([C@@H](C)CC)C(=O)N(C)CC(=O)N(C)[C@H]3C/C=C\CCN(C3=O)[C@@H](Cc3ccc(C)cc3)C(=O)N(C)CC(=O)N[C@@H](CCc3ccc(C(F)(F)F)c(OC)c3)C(=O)N2C1 [PP1872]	12.4	–	–	–	–	A (a compound having 10 or more and less than 20 is denoted as A)	A (a compound having 10 or more and less than 20 is denoted as A)
CCCN1C(=O)[C@@H]2CCN2C(=O)CN(C)C(=O)[C@H]([C@@H](C)CC)NC(=O)[C@H](CC(C)C)N(C)C(=O)C[C@@H](C(=O)N2CCOCC2)N(C)C(=O)[C@H](C2CCCC2)N(C)C(=O)[C@](C)(CC)NC(=O)[C@@H]2CCCN2C(=O)[C@H](CCc2cc(F)c(C(F)(F)F)c(F)c2)NC(=O)CN(C)C(=O)[C@@H]1Cc1ccc(C(F)(F)F)cc1 [PP0790] ([NMeL]I[Sar][Aze][NPrPhe(4-CF3)][Sar][hPhe(3,5-F2-4-CF3)]P[Iva][NMeGly(cPent)][NMeD]-Morpholide; lactam N-11)	28.8	B (a compound having 3 or more and less than 10 is denoted as B)	C (A compound having a KD ratio of 0.1 or more and less than 3 is denoted as C)	–	–	–	–
CCC[C@H]1C(=O)N[C@@H]([C@@H](C)CC)C(=O)N(C)CC(=O)N(C)[C@H]2C/C=C\CCN(C2=O)[C@@H](Cc2ccc(C(F)(F)F)cc2)C(=O)N(C)CC(=O)N[C@@H](CCc2ccc(Cl)c(C(F)(F)F)c2)C(=O)N2C[C@H](OCC)C[C@H]2C(=O)NC2(CC(C)(C)C2)C(=O)N(C)[C@@H](C2CCCC2)C(=O)N(C)[C@H](C(=O)N(C)C)CC(=O)N1C [PP2784]	7.2	A (a compound having 10 or more and less than 20 is denoted as A)	A (a compound having 10 or more and less than 20 is denoted as A)	–	–	–	–
CCO[C@@H]1C[C@H]2C(=O)NC3(CCC3)C(=O)N(C)[C@@H](C3CCCC3)C(=O)N(C)[C@H](C(=O)N3CCOCC3)CC(=O)N(C)[C@@H](COC)C(=O)N[C@@H]([C@@H](C)CC)C(=O)N(C)CC(=O)N(C)[C@H]3CCCCCN(C3=O)[C@@H](Cc3ccc(C(F)(F)F)cc3)C(=O)N(C)CC(=O)N[C@@H](CCc3cc(F)c(C(F)(F)F)c(F)c3)C(=O)N2C1 [PP0689]	34.4	–	–	B (a compound having 3 or more and less than 10 is denoted as B)	B (a compound having 3 or more and less than 10 is denoted as B)	–	–
CCCN1C(=O)CN(C)C(=O)CN(C)C(=O)[C@H]([C@@H](C)CC)NC(=O)[C@H](CC(C)C)N(C)C(=O)C[C@@H](C(=O)N2CCOCC2)N(C)C(=O)[C@H](C2CCCC2)N(C)C(=O)C2(CCC2)NC(=O)[C@@H]2CC(F)(F)CN2C(=O)[C@H](CCc2ccc(C(F)(F)F)c(Cl)c2)NC(=O)CN(C)C(=O)[C@@H]1Cc1ccc(C(F)(F)F)cc1 [PP0207] ([NMeL]I[Sar][Sar][NPrPhe(4-CF3)][Sar][hPhe(3-Cl-4-CF3)][Pro(4,4-F2)][Ac4c][NMeGly(cPent)][NMeD]-Morpholide; lactam N-11)	1.9	C (A compound having a KD ratio of 0.1 or more and less than 3 is denoted as C)	B (a compound having 3 or more and less than 10 is denoted as B)	–	–	–	–
CCCN1C(=O)[C@@H]2CCN2C(=O)[C@H](C)N(C)C(=O)[C@H]([C@@H](C)CC)NC(=O)[C@H](CC(C)C)N(C)C(=O)C[C@@H](C(=O)N(C)C)NC(=O)[C@H](C2CCCC2)N(C)C(=O)C2(CCC2)NC(=O)[C@@H]2CC(F)(F)CN2C(=O)[C@H](CCc2ccc(C(F)(F)F)c(Cl)c2)NC(=O)CN(C)C(=O)[C@@H]1Cc1ccc(C(F)(F)F)cc1 [PP0382] ([NMeL]I[NMeA][Aze][NPrPhe(4-CF3)][Sar][hPhe(3-Cl-4-CF3)][Pro(4,4-F2)][Ac4c][NMeGly(cPent)]D-NMe2; lactam N-11)	12.1	B (a compound having 3 or more and less than 10 is denoted as B)	C (A compound having a KD ratio of 0.1 or more and less than 3 is denoted as C)	–	–	–	–
CCO[C@@H]1C[C@H]2C(=O)NC3(CCC3)C(=O)N(C)[C@@H](C3CCCC3)C(=O)N(C)[C@H](C(=O)N3CCOCC3)CC(=O)N(C)[C@@H](CC(C)C)C(=O)N[C@@H]([C@@H](C)CC)C(=O)N(C)CC(=O)N(C)[C@H]3C[C@@H](C)CCN(C3=O)[C@@H](Cc3ccc(C(F)(F)F)cc3)C(=O)N(C)CC(=O)N[C@@H](CCc3cc(F)c(C(F)(F)F)c(F)c3)C(=O)N2C1 [PP1025]	10.7	B (a compound having 3 or more and less than 10 is denoted as B)	C (A compound having a KD ratio of 0.1 or more and less than 3 is denoted as C)	–	–	–	–
